Test results taken from patent US20260364080A1, “PYRAZOLO-PYRIMIDINONE COMPOUNDS FOR USE IN METHODS OF INHIBITING WEE1 A KINASE” (Acrivon Therapeutics, Inc., priority 2023, published 2026).
Where two headings read alike, the source gives them in different places.

Key:
[1] = molecular target: T1, recombinant human Wee1A kinase (Homo sapiens, UniProt P30291); test: Wee1A kinase binding assay (LanthaScreen Eu time-resolved FRET)
T1 construct: full length Wee1 kinase was expressed by baculovirus in insect cells; purchased Invitrogen PV3817; host or cells: insect cells (baculovirus)
Method in brief: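 Full-length, baculovirus-expressed GST-tagged Wee1A (5 nM) was mixed with 2 nM Eu-anti-GST antibody, 30 nM kinase tracer 178 and compound (1% DMSO). Buffer was 50 mM HEPES pH 7.5, 10 mM MgCl2, 1 mM EGTA, 0.01% Brij-35, incubated 60 min at room temperature. TR-FRET 665/615 nm emission ratios from duplicates were curve-fitted.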

[2] = molecular target: T2, Myt1 kinase (recombinant PMYT-1) (Homo sapiens, UniProt Q99640); test: Myt1 kinase binding assay (LanthaScreen Eu Kinase Binding Assay)
T2 construct: full length PMYT-1 was expressed by baculovirus in insect cells; purchased Invitrogen A30984; host or cells: insect cells (baculovirus)
T2 sequence (Q99640 1-499): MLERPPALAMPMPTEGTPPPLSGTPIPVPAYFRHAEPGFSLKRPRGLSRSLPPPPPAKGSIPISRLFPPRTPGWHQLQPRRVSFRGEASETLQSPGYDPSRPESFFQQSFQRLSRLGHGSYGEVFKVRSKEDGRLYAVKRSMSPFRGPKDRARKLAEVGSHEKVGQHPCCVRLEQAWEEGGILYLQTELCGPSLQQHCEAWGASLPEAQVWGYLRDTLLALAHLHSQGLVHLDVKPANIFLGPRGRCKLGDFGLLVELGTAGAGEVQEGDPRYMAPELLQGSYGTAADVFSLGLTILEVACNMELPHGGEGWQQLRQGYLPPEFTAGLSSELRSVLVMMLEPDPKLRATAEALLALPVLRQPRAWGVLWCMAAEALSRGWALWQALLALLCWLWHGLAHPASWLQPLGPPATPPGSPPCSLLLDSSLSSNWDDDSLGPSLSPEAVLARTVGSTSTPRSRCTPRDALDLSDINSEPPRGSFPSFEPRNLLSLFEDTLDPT
Method in brief: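 Compound binding to Myt1 kinase was assessed using the LanthaScreen Eu Kinase Binding Assay. This europium-based binding format was applied to quantify how strongly each compound bound to the Myt1 enzyme, and the binding affinity was reported for each compound as an IC50 value.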

[3] = molecular target: T3, Wee1A kinase (CDK1 Tyr15 phosphorylation in ACHN renal cell carcinoma cells) (Homo sapiens, UniProt P30291); test: High-content imaging of pCdk1 Y15, Wee1A kinase target engagement in ACHN cells; assay type: cell-based
T3 construct: pCDK1 Tyr15 immunofluorescence read-out
Method in brief: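 EC50 values come from the per-well fraction of cells with nuclear pCdk1 Y15 staining, normalised to DMSO control, by automated immunofluorescence imaging. Cells were ACHN renal carcinoma, treated 4 h with compound at 7–5,000 nM or 0.3–200 nM.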

[4] = Myt1 kinase Binding IC50, 3 nM tracer 178, 2.5 nM PMYT-1, 1 nM Eu-labeled antibody
[5] = read-out: CDK1 Tyr15 Phosphorylation EC50, 4 h treatment, nuclear positivity for pCdk1 Y15 vs DMSO control
[6] = 30 nM tracer 178, 5 nM Wee1A kinase, 2 nM Eu-labeled antibody, 60 minutes at room temperature, read-out: Wee1A kinase Binding IC50
[7] = 3 nM tracer 178, 2.5 nM PMYT-1, 1 nM Eu-labeled antibody, read-out: Myt1 kinase Binding IC50
[8] = 4 h treatment, nuclear positivity for pCdk1 Y15 vs DMSO control, read-out: CDK1 Tyr15 Phosphorylation EC50

T3 sequence (P30291 whole entry): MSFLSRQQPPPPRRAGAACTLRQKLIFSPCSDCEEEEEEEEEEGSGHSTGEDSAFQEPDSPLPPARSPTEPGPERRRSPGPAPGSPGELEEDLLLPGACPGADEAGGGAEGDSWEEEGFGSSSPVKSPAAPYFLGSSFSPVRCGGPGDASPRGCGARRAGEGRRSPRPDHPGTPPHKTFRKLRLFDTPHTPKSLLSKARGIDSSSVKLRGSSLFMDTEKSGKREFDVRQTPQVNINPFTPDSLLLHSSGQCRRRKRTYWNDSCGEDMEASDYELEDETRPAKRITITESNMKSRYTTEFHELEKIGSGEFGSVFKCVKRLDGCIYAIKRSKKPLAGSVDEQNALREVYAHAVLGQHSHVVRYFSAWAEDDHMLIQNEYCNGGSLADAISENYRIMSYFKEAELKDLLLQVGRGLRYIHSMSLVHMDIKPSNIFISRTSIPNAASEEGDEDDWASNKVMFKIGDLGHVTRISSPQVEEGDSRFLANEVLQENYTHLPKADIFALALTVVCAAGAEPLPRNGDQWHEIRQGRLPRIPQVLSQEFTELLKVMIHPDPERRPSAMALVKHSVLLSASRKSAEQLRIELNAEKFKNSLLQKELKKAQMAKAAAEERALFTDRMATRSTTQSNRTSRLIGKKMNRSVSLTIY
T1 sequence (P30291 whole entry): as above

| Compound | IC50 [1] [µM] | IC50 [2, 4] [µM] | EC50 [3, 5] [µM] | IC50 [1, 6] [µM] | IC50 [2, 7] [µM] | EC50 [3, 8] [µM] |
| --- | --- | --- | --- | --- | --- | --- |
| C=CCn1c(=O)c2cnc(Nc3cnn(CC(C)C)c3)nc2n1-c1cccc(N(C)C2CCN(C)CC2)n1 [Compound 175, 1-{6-[methyl(1-methylpiperidin-4-yl)amino]pyridin-2-yl}-6-{[1-(2-methylpropyl)-1H-pyrazol-4-yl]amino}-2-(prop-2-en-1-yl)-1H,2H,3H-pyrazolo[3,4-d]pyrimidin-3-one] | < 0.01 | > 0.5 | 0.5 to 1 | – | – | – |
| C=CCn1c(=O)c2cnc(Nc3ccc(Cl)cc3)nc2n1-c1cccc(N(CCC)C2CCN(C)CC2)n1 [Compound 149, 6-[(4-chlorophenyl)amino]-1-{6-[(1-methylpiperidin-4-yl)(propyl)amino]pyridin-2-yl}-2-(prop-2-en-1-yl)-1H,2H,3H-pyrazolo[3,4-d]pyrimidin-3-one] | < 0.01 | > 0.5 | 0.5 to 1 | – | – | – |
| C=CCn1c(=O)c2cnc(Nc3cnn(CC(C)(C)F)c3)nc2n1-c1cccc(N(C)C2CCN(C)CC2)n1 [Compound 185, 6-{[1-(2-fluoro-2-methylpropyl)-1H-pyrazol-4-yl]amino}-1-{6-[methyl(1-methylpiperidin-4-yl)amino]pyridin-2-yl}-2-(prop-2-en-1-yl)-1H,2H,3H-pyrazolo[3,4-d]pyrimidin-3-one] | < 0.01 | > 0.5 | 0.5 to 1 | – | – | – |
| C=CCn1c(=O)c2cnc(Nc3cnn(CC(C)C)c3)nc2n1-c1cccc(N(C)C2CCNCC2)n1 [Compound 170, 1-{6-[methyl(piperidin-4-yl)amino]pyridin-2-yl}-6-{[1-(2-methylpropyl)-1H-pyrazol-4-yl]amino}-2-(prop-2-en-1-yl)-1H,2H,3H-pyrazolo[3,4-d]pyrimidin-3-one] | < 0.01 | > 0.5 | > 1 | – | – | – |
| C=CCn1c(=O)c2cnc(Nc3ccc(F)cc3)nc2n1-c1cccc(OC2CCCNCC2)n1 (stereo not drawn) [Compound 315, 2-allyl-1-[6-(4-azepanyloxy)-2-pyridyl]-6-(p-fluorophenylamino)-1,2-dihydro-3H-1,2,5,7-tetraazainden-3-one] | – | – | – | < 0.01 | 0.02 to 0.1 | 0.5 to 1 |
| C=CCn1c(=O)c2cnc(Nc3ccc(OC(F)(F)F)cc3)nc2n1-c1cccc(NC2CCNCC2)n1 [Compound 135, 1-{6-[(piperidin-4-yl)amino]pyridin-2-yl}-2-(prop-2-en-1-yl)-6-{[4-(trifluoromethoxy)phenyl]amino}-1H,2H,3H-pyrazolo[3,4-d]pyrimidin-3-one] | – | – | – | < 0.01 | 0.1 to 0.5 | 0.5 to 1 |
| C=CCn1c(=O)c2cnc(Nc3ccc(F)cc3)nc2n1-c1cccc(O[C@H]2CCCNCC2)n1 (single isomer, unassigned) [Compound 266] | – | – | – | < 0.01 | 0.02 to 0.1 | 0.1 to 0.5 |
| C=CCn1c(=O)c2cnc(Nc3ccc(Cl)cc3)nc2n1-c1cccc(OC2CCCNC2)n1 (stereo in doubt) [Compound 159, 6-[(4-chlorophenyl)amino]-1-{6-[(3R)-piperidin-3-yloxy]pyridin-2-yl}-2-(prop-2-en-1-yl)-1H,2H,3H-pyrazolo[3,4-d]pyrimidin-3-one] | – | – | – | < 0.01 | 0.02 to 0.1 | 0.5 to 1 |
| C=CCn1c(=O)c2cnc(Nc3ccc(Cl)c(Cl)c3)nc2n1-c1cccc(NC2CCNCC2)n1 [Compound 146, 2-allyl-6-(3,4-dichlorophenylamino)-1-[6-(4-piperidylamino)-2-pyridyl]-1,2-dihydro-3H-1,2,5,7-tetraazainden-3-one] | – | – | – | < 0.01 | 0.1 to 0.5 | > 1 |

Second part, the compound after the results:

| IC50 [1] [µM] | IC50 [2, 4] [µM] | EC50 [3, 5] [µM] | IC50 [1, 6] [µM] | IC50 [2, 7] [µM] | EC50 [3, 8] [µM] | Compound |
| --- | --- | --- | --- | --- | --- | --- |
| – | – | – | < 0.01 | 0.1 to 0.5 | 0.1 to 0.5 | CCn1c(=O)c2cnc(Nc3ccc(F)cc3)nc2n1-c1cccc(OC2CCNCC2)n1 [Compound 297, 2-ethyl-6-(p-fluorophenylamino)-1-[6-(4-piperidyloxy)-2-pyridyl]-1,2-dihydro-3H-1,2,5,7-tetraazainden-3-one] |
| – | – | – | < 0.01 | 0.1 to 0.5 | 0.1 to 0.5 | CCn1c(=O)c2cnc(Nc3cnn(C)c3)nc2n1-c1cccc(OC2CCN(C)CC2)n1 [Compound 132, 2-ethyl-1-[6-(1-methyl-4-piperidyloxy)-2-pyridyl]-6-(1-methyl-4-pyrazolylamino)-1,2-dihydro-3H-1,2,5,7-tetraazainden-3-one] |
| – | – | – | < 0.01 | 0.1 to 0.5 | 0.1 to 0.5 | C=CCn1c(=O)c2cnc(Nc3cc(C)cc(F)c3)nc2n1-c1cccc(NC2CCNCC2)n1 [Compound 160, 2-allyl-6-(3-fluoro-5-toluidino)-1-[6-(4-piperidylamino)-2-pyridyl]-1,2-dihydro-3H-1,2,5,7-tetraazainden-3-one] |
| – | – | – | < 0.01 | 0.02 to 0.1 | < 0.1 | CCn1c(=O)c2cnc(Nc3cccc(-c4cccnc4)c3)nc2n1-c1cccc(OC2CCN(C)CC2)n1 [Compound 352, 2-ethyl-1-[6-(1-methyl-4-piperidyloxy)-2-pyridyl]-6-[m-(3-pyridyl)phenylamino]-1,2-dihydro-3H-1,2,5,7-tetraazainden-3-one] |
| – | – | – | < 0.01 | 0.02 to 0.1 | 0.5 to 1 | C=CCn1c(=O)c2cnc(Nc3ccc4[nH]nc(C)c4c3)nc2n1-c1cccc(OC2CCNCC2)n1 [Compound 345, 2-allyl-6-((3-methyl-1H-indazol-5-yl)amino)-1-(6-(piperidin-4-yloxy)pyridin-2-yl)-1,2-dihydro-3H-pyrazolo[3,4-d]pyrimidin-3-one] |
| – | – | – | < 0.01 | 0.02 to 0.1 | 0.5 to 1 | C=CCn1c(=O)c2cnc(Nc3cncc(F)c3)nc2n1-c1cccc(OC2CCNCC2)n1 [Compound 329, 2-allyl-6-(5-fluoro-3-pyridylamino)-1-[6-(4-piperidyloxy)-2-pyridyl]-1,2-dihydro-3H-1,2,5,7-tetraazainden-3-one] |
| – | – | – | < 0.01 | 0.02 to 0.1 | 0.5 to 1 | Cn1c(=O)c2cnc(Nc3ccc(Cl)cc3)nc2n1-c1cccc(OC2CCNCC2)n1 [Compound 153, 6-(p-chlorophenylamino)-2-methyl-1-[6-(4-piperidyloxy)-2-pyridyl]-1,2-dihydro-3H-1,2,5,7-tetraazainden-3-one] |
| – | – | – | < 0.01 | 0.1 to 0.5 | < 0.1 | C=CCn1c(=O)c2cnc(Nc3ccc4c(cnn4C)c3)nc2n1-c1cccc(O[C@H]2CCCNCC2)n1 (single isomer, unassigned) [Compound 358] |
| – | – | – | < 0.01 | < 0.02 | < 0.1 | C=CCn1c(=O)c2cnc(Nc3cnc4c(cnn4C(C)C)c3)nc2n1-c1cccc(OC2CCNCC2)n1 [Compound 407, 2-allyl-6-((1-isopropyl-1H-pyrazolo[3,4-b]pyridin-5-yl)amino)-1-(6-(piperidin-4-yloxy)pyridin-2-yl)-1,2-dihydro-3H-pyrazolo[3,4-d]pyrimidin-3-one] |
| – | – | – | < 0.01 | 0.02 to 0.1 | 0.1 to 0.5 | C=CCn1c(=O)c2cnc(Nc3ccc(Cl)cc3)nc2n1-c1cccc(O[C@H]2CCN(C)C2)n1 [Compound 148, 1-{6-[(S)-1-methyl-3-pyrrolidinyloxy]-2-pyridyl}-2-allyl-6-(p-chlorophenylamino)-1,2-dihydro-3H-1,2,5,7-tetraazainden-3-one] |
| – | – | – | < 0.01 | 0.1 to 0.5 | 0.1 to 0.5 | C=CCn1c(=O)c2cnc(Nc3ccc4c(cnn4C)c3)nc2n1-c1cccc(OC2CCN(C)C(C)(C)C2)n1 (stereo not drawn) [Compound 343, 2-allyl-6-((1-methyl-1H-indazol-5-yl)amino)-1-(6-((1,2,2-trimethylpiperidin-4-yl)oxy)pyridin-2-yl)-1,2-dihydro-3H-pyrazolo[3,4-d]pyrimidin-3-one] |
| – | – | – | < 0.01 | 0.1 to 0.5 | 0.1 to 0.5 | C=CCn1c(=O)c2cnc(Nc3ccc(Cl)c(Cl)c3)nc2n1-c1cccc(NC2CCN(C)CC2)n1 [Compound 151, 2-allyl-6-(3,4-dichlorophenylamino)-1-[6-(1-methyl-4-piperidylamino)-2-pyridyl]-1,2-dihydro-3H-1,2,5,7-tetraazainden-3-one] |
